Source: paper PMC9967275, “Screening the Pathogen Box to Discover and Characterize New Cruzain and TbrCatL Inhibitors” (Pathogens, 2023)
Read-outs that look alike come from different tables or passages of the source.

What was measured:
cruzain = cruzain (Trypanosoma cruzi, UniProt P25779); assay: biochemical;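 as to Cruzain 0’ Inhibition: at 5 µM compound concentration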;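 as to Cruzain 10’ Inhibition: at 5 µM compound concentration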;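 as to Cruzain Inhibition 0’: at 5 µM compound concentration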;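 as to Cruzain Inhibition 10’: at 5 µM compound concentration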
Chain of cruzain (P25779 123-337 limits assumed): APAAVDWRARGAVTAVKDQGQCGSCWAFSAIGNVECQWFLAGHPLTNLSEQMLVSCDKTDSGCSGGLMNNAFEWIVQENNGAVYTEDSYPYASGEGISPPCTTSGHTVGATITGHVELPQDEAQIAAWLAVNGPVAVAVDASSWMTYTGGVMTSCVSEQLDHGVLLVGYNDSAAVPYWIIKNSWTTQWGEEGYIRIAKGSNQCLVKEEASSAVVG
Experimental: (§1) Allison Doak and Prof. Brian Shoichet (University of California San Francisco, San Francisco, CA, USA) and Prof. Conor Caffrey (University of California San Diego, San Diego, CA, USA) generously provided recombinant cruzain and TbrCatL, respectively. In vitro activity of proteases cruzain and TbrCatL was assayed as previously described. Briefly, enzyme activity was measured by monitoring the cleavage of the fluorogenic substrate […] (Z-FR-AMC) at 25 °C. Fluorescence was monitored at 340/440 nm (excitation/emission) over 5–7 min in a Synergy2 Biotek plate reader. […] DMSO and 1 μM E-64 were employed as negative and positive controls, respectively, in all assays. Two conditions were employed for both enzymes: 10′ pre-incubation of the enzyme in the presence of the compound (10′ inc) and no pre-incubation (0′). Reported values correspond to the mean and standard error of the mean (SEM) and all analyses were performed using GraphPad Prism 6.0.
(§2) For the initial screening, compounds were assayed at 5 μM. […] IC50 curves were obtained from a non-linear fit of at least seven distinct compound concentrations, in triplicate. Reported IC50 values are the mean and SEM of two independent measurements.

TbrCatL = biological target: T1, TbrCatL (Trypanosoma brucei rhodesiense, UniProt Q95PM0); assay: TbrCatL enzymatic inhibition assay (cleavage of fluorogenic substrate Z-FR-AMC); assay type: biochemical; conditions: for TbrCatL 0’ Inhibition / TbrCatL 10’ Inhibition: sheet "Screening results";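 as to TbrCatL 0’ Inhibition: at 5 µM compound concentration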;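 as to TbrCatL 10’ Inhibition: at 5 µM compound concentration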;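 as to TbrCatL Inhibition 0’: at 5 µM compound concentration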;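 as to TbrCatL Inhibition 10’: at 5 µM compound concentration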
T1 construct: Conor Caffrey (University of California San Diego)
T1 sequence (Q95PM0 entry or part of it): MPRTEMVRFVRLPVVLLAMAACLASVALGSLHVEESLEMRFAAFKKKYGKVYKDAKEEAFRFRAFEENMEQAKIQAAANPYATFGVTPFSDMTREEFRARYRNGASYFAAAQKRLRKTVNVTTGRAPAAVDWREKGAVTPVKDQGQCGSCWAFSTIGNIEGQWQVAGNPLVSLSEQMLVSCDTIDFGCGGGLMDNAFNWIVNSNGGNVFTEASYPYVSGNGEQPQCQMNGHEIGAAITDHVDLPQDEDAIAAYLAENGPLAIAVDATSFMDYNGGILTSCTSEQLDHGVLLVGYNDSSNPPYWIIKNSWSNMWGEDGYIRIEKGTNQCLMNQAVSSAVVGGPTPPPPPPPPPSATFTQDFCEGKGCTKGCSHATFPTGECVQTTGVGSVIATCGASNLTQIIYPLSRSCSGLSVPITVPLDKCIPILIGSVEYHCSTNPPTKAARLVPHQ
Experimental: as §1, §2

[1] = 0’ (pre-incubation time), Pathogen Box screening results
[2] = 10’ (pre-incubation time), Pathogen Box screening results
[3] = 0’ (pre-incubation time), sheet "Screening results"
[4] = 10’ (pre-incubation time), sheet "Screening results"
[5] = 0’ (no pre-incubation), sheet Screening results
[6] = 10’ (pre-incubation), sheet Screening results

CCC(C)NC(=O)c1ccc(NC(=O)C2(c3ccccc3)CCCC2)cc1 (centres unmarked) [MMV146306]
Cruzain Inhibition 0’ (cruzain; [1]): 0.6% | Cruzain Inhibition 10’ (cruzain; [2]): 1.8% | TbrCatL Inhibition 0’ (TbrCatL; [1]): -3.2% | TbrCatL Inhibition 10’ (TbrCatL; [2]): -6.5%

Nc1ccc2ncnc(Nc3ccc(OCc4cccc(F)c4)c(Cl)c3)c2c1 [MMV688273]
Cruzain Inhibition 0’ (cruzain; [1]): -11% | Cruzain Inhibition 10’ (cruzain; [2]): -18% | TbrCatL Inhibition 0’ (TbrCatL; [1]): 0.9% | TbrCatL Inhibition 10’ (TbrCatL; [2]): -14%

Cc1ccc(-c2cc(C(=O)Nc3cccnc3)c3cc(Br)ccc3n2)cc1 [MMV016838]
Cruzain Inhibition 0’ (cruzain; [1]): 4.3% | Cruzain Inhibition 10’ (cruzain; [2]): 7.6% | TbrCatL Inhibition 0’ (TbrCatL; [1]): 1.7% | TbrCatL Inhibition 10’ (TbrCatL; [2]): 0.3%

O=C1[C@@H](Oc2ccccc2)[C@@H](c2ccc(Cl)cc2)N1CCn1cnc2c(NCc3ccccc3)ncnc21 [MMV688352]
Cruzain 0’ Inhibition (cruzain; [3]): 0% | Cruzain 10’ Inhibition (cruzain; [4]): 23% | TbrCatL 0’ Inhibition (TbrCatL; 0’ (pre-incubation time)): 5% | TbrCatL 10’ Inhibition (TbrCatL; 10’ (pre-incubation time)): 12%

CC(Oc1ccccc1)C(=O)Nc1nc(-c2ccccn2)cs1 (centres unmarked) [MMV676411]
Cruzain 0’ Inhibition (cruzain; [3]): -2.3% | Cruzain 10’ Inhibition (cruzain; [4]): 0.8% | TbrCatL 0’ Inhibition (TbrCatL; 0’ (pre-incubation time)): -14% | TbrCatL 10’ Inhibition (TbrCatL; 10’ (pre-incubation time)): -0.8%

Clc1ccc(Cl)c(CO[C@H]2CCCC[C@@H]2n2ccnc2)c1 [MMV676048]
Cruzain 0’ Inhibition (cruzain; [3]): 2.8% | Cruzain 10’ Inhibition (cruzain; [4]): 5.7% | TbrCatL 0’ Inhibition (TbrCatL; 0’ (pre-incubation time)): 0.8% | TbrCatL 10’ Inhibition (TbrCatL; 10’ (pre-incubation time)): -3.8%

Cc1cc(C(=O)Nc2cnn(Cc3ccc(Cl)cc3Cl)c2)no1 [MMV009054]
Cruzain Inhibition 0’ (cruzain; [5]): -1.8% | Cruzain Inhibition 10’ (cruzain; [6]): -2% | TbrCatL Inhibition 0’ (TbrCatL; [5]): -14% | TbrCatL Inhibition 10’ (TbrCatL; [6]): -16%

Nc1ncnc2n[nH]c(Cc3cccc4ccccc34)c12 [MMV688469]
Cruzain 0’ Inhibition (cruzain; [3]): -9% | Cruzain 10’ Inhibition (cruzain; [4]): 4.5% | TbrCatL 0’ Inhibition (TbrCatL; 0’ (pre-incubation time)): -8% | TbrCatL 10’ Inhibition (TbrCatL; 10’ (pre-incubation time)): -1.7%

c1cc(C2=NCCN2)cc(-c2cc(-c3ccc(C4=NCCN4)cc3)no2)c1 [MMV688361]
Cruzain 0’ Inhibition (cruzain; [3]): 4.5% | Cruzain 10’ Inhibition (cruzain; [4]): 7.4% | TbrCatL 0’ Inhibition (TbrCatL; 0’ (pre-incubation time)): 1.9% | TbrCatL 10’ Inhibition (TbrCatL; 10’ (pre-incubation time)): -3.5%

CO[C@@H](C(=O)N1Cc2[nH]nc(NC(=O)c3ccc(N4CCN(C)CC4)cc3)c2C1)c1ccccc1 [MMV676600]
Cruzain Inhibition 0’ (cruzain; [5]): 24% | Cruzain Inhibition 10’ (cruzain; [6]): 12% | TbrCatL Inhibition 0’ (TbrCatL; [5]): 7.5% | TbrCatL Inhibition 10’ (TbrCatL; [6]): 11%

Nc1ncc(Br)cc1-c1nc2cc(Cl)cnc2[nH]1 [MMV676358]
Cruzain 0’ Inhibition (cruzain; [3]): -2.8% | Cruzain 10’ Inhibition (cruzain; [4]): 8% | TbrCatL 0’ Inhibition (TbrCatL; 0’ (pre-incubation time)): -9% | TbrCatL 10’ Inhibition (TbrCatL; 10’ (pre-incubation time)): -2.5%

CC[C@@H]([C@H](C)O)n1ncn(-c2ccc(N3CCN(c4ccc(OC[C@@H]5CO[C@@](Cn6cncn6)(c6ccc(F)cc6F)C5)cc4)CC3)cc2)c1=O [MMV688774]
Cruzain Inhibition 0’ (cruzain; [5]): 9% | Cruzain Inhibition 10’ (cruzain; [6]): 10% | TbrCatL Inhibition 0’ (TbrCatL; [5]): 3.6% | TbrCatL Inhibition 10’ (TbrCatL; [6]): 8%

O=C(NC1CCCCC1)N1CCN(Cc2ccc3c(c2)OCO3)CC1 [MMV676444]
Cruzain Inhibition 0’ (cruzain; [5]): 0.4% | Cruzain Inhibition 10’ (cruzain; [6]): 5.5% | TbrCatL Inhibition 0’ (TbrCatL; [5]): 9% | TbrCatL Inhibition 10’ (TbrCatL; [6]): 8%

N=C(N)Nc1ccc(-c2ccc(-c3ccc(NC(=N)N)c(Cl)c3)o2)cc1Cl [MMV688271]
inhibition at 5 µM (cruzain; read-out: Cruzain 0’ Inhibition, 0’ (pre-incubation time), sheet "Screening results"): 83% | inhibition at 5 µM (cruzain; read-out: Cruzain 10’ Inhibition, 10’ (pre-incubation time), sheet "Screening results"): 50% | inhibition at 5 µM (cruzain; read-out: Inhibition at 5 µM (Mean ± SEM %) Cruzain 0′, 5 µM, no pre-incubation, initial screening): 83 ± 10% | inhibition at 5 µM (cruzain; read-out: Inhibition at 5 µM (Mean ± SEM %) Cruzain 10′ inc, 5 µM, 10′ pre-incubation, initial screening): 50 ± 4% | inhibition at 5 µM (cruzain; read-out: Inhibition of cruzain or TbrCatL (either enzyme) in the initial screening, 5 µM, either cruzain or TbrCatL, with or without pre-incubation): ≥ 60% | inhibition at 5 µM (TbrCatL; read-out: Inhibition at 5 µM (Mean ± SEM %) TbrCatL 0′): 53 ± 5% | inhibition at 5 µM (TbrCatL; read-out: Inhibition at 5 µM (Mean ± SEM %) TbrCatL 10′ inc): 43 ± 1% | inhibition at 5 µM (TbrCatL; read-out: TbrCatL 0’ Inhibition): 53% | inhibition at 5 µM (TbrCatL; read-out: TbrCatL 10’ Inhibition): 43%

Cc1cccnc1NC(=O)c1cccc(OCc2c(C)noc2C)c1 [MMV688793]
Cruzain Inhibition 0’ (cruzain; [5]): 16% | Cruzain Inhibition 10’ (cruzain; [6]): 10% | TbrCatL Inhibition 0’ (TbrCatL; [5]): 14% | TbrCatL Inhibition 10’ (TbrCatL; [6]): 10%

N=C(N)c1ccc(OCCCCCOc2ccc(C(=N)N)cc2)cc1 [MMV000062]
Cruzain Inhibition 0’ (cruzain; [5]): 19% | Cruzain Inhibition 10’ (cruzain; [6]): 13% | TbrCatL Inhibition 0’ (TbrCatL; [5]): 3% | TbrCatL Inhibition 10’ (TbrCatL; [6]): -3%

N#Cc1ccc(-c2ccc(OCC(N)=O)cc2)cc1 [MMV053220]
Cruzain Inhibition 0’ (cruzain; [5]): -9% | Cruzain Inhibition 10’ (cruzain; [6]): -5% | TbrCatL Inhibition 0’ (TbrCatL; [5]): -5.7% | TbrCatL Inhibition 10’ (TbrCatL; [6]): -7%

Cc1nn(C(=O)Nc2cccc(C(F)(F)F)c2)c(C)c1Sc1ncccn1 [MMV688552]
Cruzain Inhibition 0’ (cruzain; [1]): 2.3% | Cruzain Inhibition 10’ (cruzain; [2]): 0.1% | TbrCatL Inhibition 0’ (TbrCatL; [1]): -0.1% | TbrCatL Inhibition 10’ (TbrCatL; [2]): 5%
